Data published in patent US20140079785A1, “COMPOSITION COMPRISING LIPID NANOPARTICLES AND A CORTICOSTEROID OR VITAMIN D DERIVATIVE” (priority 2011, published 2014).

Key:
[1] = In vitro skin penetration and permeation of 3H BMV, Franz type diffusion cells; format: in vitro ADME, porcine; conditions: barrier-impaired versus intact skin, applied in SLN
Experimental: The porcine ears were obtained from newly slaughtered pigs from the Danish Meat Trade College (Roskilde, Denmark). The ears were stored at −20° C. and thawed slowly at 4° C. before shaving and removing full-thickness skin from the back of the ears using a scalpel. Subcutaneous tissue was carefully removed with a scalpel and the skin was cut into appropriate pieces before freezing at −20° C. until use (after no more than 14 days). Two skin pieces were obtained from each ear, and they were balanced with respect to intact and barrier-impaired skin.
Skin barrier impairment was induced by 25 successive tape strippings applying D-Squame® tape discs (Cuderm Corp., Dallas, USA). 225 g/cm^2 pressure on the tape was applied with a D-Squame® tape applicator for 5 sec. (Cuderm Corp., Dallas, USA). […]
Penetration profiles of BMV and lipid were evaluated. ^3H-labelled BMV and ^14C-labelled lipid were used to study the penetration of BMV and lipid particles (distearate and tripalmitate) into intact and barrier-impaired skin.
The skin was mounted on Franz type diffusion cells with the dermis side facing the receptor medium (diffusion area 3.14 cm^2, recipient volume 10 ml, constant stirring, temperature kept at 32° C.). […] The exact amount of formulation applied was determined by weighing the spatula before and after application. After complete incubation, the skin was separated and analyzed. […]

[2] = tested on: IL-1β, IL-4, IL-8, IL-10 and IL-12; assay: Cytokine level in ear tissue (MSD mouse TH1/TH2 9-plex); format: in vivo, mice; conditions: upon treatment with BMV
Experimental: The remaining ear tissue from the 8 mm biopsy was cut into two halves, one of which was tape stripped before analysing the drug concentration and the other was used for cytokine analysis. Both were snap-frozen in liquid nitrogen and stored at −80° C. until the analysis was carried out.
The ear tissue was homogenized in 200 μl lysis buffer using a Precellys® 24 tissue homogenizer with a Cryolys cooling unit from Bertin Technologies (Montigny-le-Bretonneux, France). The lysis buffer was composed of 1 mM Na3VO4, 0.4% (v/v) nonyl phenoxypolyethoxylethanol (NP40) and the protease inhibitor Complete™ from Roche Diagnostics (Mannheim, Germany) dissolved in PBS. […] The supernatant was kept at −80° C. until the MSD® cytokine assay was performed. A determination of the total protein concentration was performed to normalize the sample concentration before the cytokine determination. […] Specific level of the cytokines IFN-γ, IL-1-β, IL-2, IL-4, IL-5, IL-8, IL-10, IL-12 total and TNF-α in the ear tissue were determined with a MSD® mouse TH1/TH2 9-plex Multi-Spot® 96-well 10 spot plate using a MSD® Sector Imager 6000 (Meso Scale Discovery, Gaithersburg, Md., USA). The MSD® assay was optimized for tissue use. […] Washing was repeated 3 times with 0.05% (v/v) polysorbate 20 before finally adding 150 μl read buffer diluted 1:2 in MilliQ water and reading the plate on the MSD® Sector Imager 6000.

CCCCC(=O)O[C@]1(C(=O)CO)[C@@H](C)C[C@H]2[C@@H]3CCC4=CC(=O)C=C[C@]4(C)[C@@]3(F)[C@@H](O)C[C@@]21C [BMV, Betamethasone-17-Valerate]
increase in BMV penetration [1]: 3-60 fold | concentration of IL-5 and TNF-α [2]: below the detection limit
